This is an account of results in patent publication US20220411419A1, “SMALL MOLECULE MODULATORS OF MHC-I” (RetroVirox, Inc., priority 2018, published 2022).

One data set concerns uninfected SupT1 cells. In words: Compound-induced toxicity, XTT cell viability assay. The conditions noted are these: read-out: CC50 (concentration reducing cell viability by 50%), XTT method, 48 h, Tables 3 and 4.
Data set [1] has as its system downmodulation of MHC-I molecules expressed on the surface of HIV infected SupT1 cells. The conditions noted are these: for EC50: read-out: EC50 for inhibition of MHC-I downmodulation utilizing the R1 parameter, SupT1 cells infected with HIV-1, compounds added 20 h after infection, 24 h incubation.
A further data set can be described thus: in vitro. The settings on record: human, uninfected SupT1 cells.
Data set [2] deals with surface MHC-I in uninfected SupT1 cells (GFP-negative). In words: Surface MHC-I in GFP-negative (uninfected) SupT1 cells of cultures treated with HIV-1 (FIG. 4). Type of data set: cell-based. The conditions noted are these: dose-dependent. Here is the method: FIG. 4 represents the levels of expression of surface MHC-I in uninfected SupT1 cells (GFP-negative) incubated with vehicle alone (0.1% DMSO) or with compounds #40, #53, #54, #56 or #100 at different concentrations. Values are shown as the percentage of the MHC-I expression observed in cells treated with 0.1% DMSO alone. All samples were incubated with HIV-1 reporter virus (NL4.3-GFP) except those shown as ΔNef, which are shown for reference and were treated with nef-defective virus.
To determine whether the inhibitors of MHC-I downmodulation are specific for HIV infection a study to determine whether the compounds also interfere with expression of MHC-I in uninfected cells was undertaken. The effect of the same compounds was evaluated in SupT-1 cells treated with HIV-1 as shown before, but this time the levels of expression of MHC-I were obtained in GFP-negative cells (FIG. 4). […] The increase was dose-dependent and compounds elevated MHC-I levels by as much as 70% (as compared to cells treated with vehicle alone).

Data set [3] concerns downmodulation of MHC-I molecules expressed on the surface of HIV infected SupT1 cells. In words: cells.
The test system of data set [4] is MHC-I surface expression in uninfected SupT1 cells. In words: Increase of MHC-I surface expression in uninfected SupT1 cells (mean-MHC-I EC50, FIG. 6A). Type of data set: cell-based. The conditions noted are these: Homo sapiens, SUP-T1, 24 h with compound, read-out: EC50 for MHC-I increased surface expression. Here is the method: In some instances, the effect of small molecules in modulation of surface MHC-I was monitored in uninfected (rather than HIV-infected) Sup-T1 cells (FIG. 6A). In these experiments uninfected SupT1 cells were incubated with the compounds for 24 h and then the increase in MHC-I surface expression was monitored by staining cells with the biotinylated HLA-A2/28 antibody (One Lambda, clone BIH0037), washed and then incubated with streptavidin conjugated with APC (Streptavidin APC, EBiosciences, 17-4317) to reveal the anti-HLA-A2 bound antibody. After washing the cells again they were fixed with 0.5% paraformaldehyde and submitted to flow cytometry to determine the levels of MHC-I surface expression (APC fluorescence) in live cells (as estimated by FS/SS in these cells). […] From these assays “mean-MHC-I” EC50 values were generated to indicate the concentration of compound that augments the mean surface levels of MHC-I to 50% of the highest levels accomplished by the compound, as compared to cells treated with vehicle alone. […] Therefore, both assays: inhibition of MHC-I downmodulation in HIV infected SupT1 cells, or increase in surface MHC-I in uninfected SupT1 cells, were indistinctively used to monitor the potency of the compounds to modulate surface expression of MHC-I in SupT1 cells.
Table 7 show the activity of selected compounds utilizing the assay in which the increase of MHC-I surface expression in uninfected SupT1 cells was evaluated, as shown in FIG. 6A. The EC50 for MHC-I increased surface expression was determined using the methods described in Example 2 and illustrated in FIG. 6A.

Setting [5] is: Human immunodeficiency virus 1, SUP-T1, read-out: EC50 for inhibition of MHC-I downmodulation utilizing the R1 parameter.
[6] abbreviates: Human immunodeficiency virus 1, SUP-T1, 24 h, read-out: EC50 for R1 (inhibition of MHC-I downmodulation).

Read-outs that look alike come from different tables or passages of the source.

One may read the EC50 as the concentration needed to bring the measured effect to its halfway point. `CC1(C)Cc2cccc(CCC(=O)Nc3nc4ccccc4s3)c2O1` [Compound 108, N-(Benzo[d]thiazol-2-yl)-3-(2,2-dimethyl-2,3-dihydrobenzofuran-7-yl) propanamide]: the CC50 in the data set on uninfected SupT1 cells is > 100000 nM. Further, in data set [1], the half-maximal effective concentration (EC50) was determined as 1370 nM.

As for `Cc1ccc(CN(C(=O)COc2cccc3c2OC(C)(C)C3)c2nc3c(s2)CCCC3)nc1` [Compound 40, 2-((2,2-Dimethyl-2,3-dihydrobenzofuran-7-yl)oxy)-N-((5-methylpyridin-2-yl)methyl)-N-(4,5,6,7-tetrahydrobenzo[d]thiazol-2-yl)acetamide], the CC50 at 48 h in the data set “in vitro” was > 100000 nM. Moreover, in data set [2], the “surface levels of MHC-I in uninfected cells” value (from here on “surface levels of MHC-I”) is given as “increased the surface levels of MHC-I in uninfected cells”. For the same molecule, the EC50 in data set [3] (setting [5]) stood at 8 nM. Further, the “viability of the cell culture (estimated by FS/SS)” value in data set [1] (100 nM compound, FIG. 2G) is “nor the viability of the cell culture (estimated by FS/SS) was affected”. In data set [1] (100 nM compound, SupT1 cells infected with wild-type virus), the “R4 values lower than in cells treated with DMSO only” value is “approximately 10 fold”.

Turning to `CN(C(=O)COc1cccc2c1OC(C)(C)C2)c1nc2c(s1)CCCC2` [Compound 53, 2-((2,2-Dimethyl-2,3-dihydrobenzofuran-7-yl)oxy)-N-methyl-N-(4,5,6,7-tetrahydrobenzo[d]thiazol-2-yl)acetamide], the EC50 is 12 nM in data set [4] and 3 nM in data set [3] (setting [5]). The CC50 in “in vitro” is > 125000 nM. For the same molecule, in the data set “in vitro”, the CC50 at 48 h was > 125000 nM. Besides, in data set [2], the “surface levels of MHC-I” value is listed as “increased the surface levels of MHC-I in uninfected cells”.

In “in vitro”, `CC1(C)Cc2cccc(OCC(=O)Nc3nc4c(C#N)cccc4s3)c2O1` [Compound 100, N-(4-cyanobenzo[d]thiazol-2-yl)-2-((2,2-dimethyl-2,3-dihydrobenzofuran-7-yl)oxy)acetamide] registered a CC50 at 48 h of 100 nM. Besides, the “surface levels of MHC-I” value in data set [2] is reported as “increased the surface levels of MHC-I in uninfected cells”. In addition, the EC50 in data set [3] (setting [6]) and in data set [3] (setting [5]) was 70 nM in each case.

As to `Cc1nc(NC(=O)COc2cccc3c2OC(C)(C)C3)ccc1C#N` [Compound 168, N-(5-Cyano-6-methylpyridin-2-yl)-2-((2,2-dimethyl-2,3-dihydrobenzofuran-7-yl)oxy)acetamide], in data set [4], the EC50 was > 25000 nM. The CC50 in “in vitro” was > 125000 nM.

`C=CCN(C(=O)COc1cccc2c1OC(C)(C)C2)c1nc2c(s1)CCCC2` [Compound 56, N-Allyl-2-((2,2-dimethyl-2,3-dihydrobenzofuran-7-yl)oxy)-N-(4,5,6,7-tetrahydrobenzo[d]thiazol-2-yl)acetamide]: the values for the EC50 in data set [4], in data set [3] (setting [6]) and in data set [3] (setting [5]) were 6 nM, ~1 nM and 1 nM, respectively. Besides, in the data set “in vitro”, the CC50 was > 125000 nM. The CC50 at 48 h in “in vitro” is > 125000 nM. For the same molecule, the “surface levels of MHC-I” value in data set [2] is “increased the surface levels of MHC-I in uninfected cells”.

Consider `Cc1ccccc1CCC(=O)N(C)c1nc2c(s1)CCCC2` [Compound 109, N-Methyl-N-(4,5,6,7-tetrahydrobenzo[d]thiazol-2-yl)-3-(o-tolyl) propanamide], for which the CC50 in the data set on uninfected SupT1 cells is > 125000 nM. Also, in data set [1], the EC50 amounted to 2100 nM.

Take `CCN(C(=O)COc1cccc2c1OC(C)(C)C2)c1nc2c(s1)CCCC2` [Compound 54, 2-((2,2-Dimethyl-2,3-dihydrobenzofuran-7-yl)oxy)-N-ethyl-N-(4,5,6,7-tetrahydrobenzo[d]thiazol-2-yl)acetamide]: the EC50 in data set [4] was found to be 9 nM. Further, in the data set “in vitro”, the CC50 was > 125000 nM and the CC50 at 48 h is > 125000 nM. Also, the “surface levels of MHC-I” value in data set [2] was “increased the surface levels of MHC-I in uninfected cells”. Moreover, in data set [3] (setting [5]), the EC50 is 8 nM.

On to `Cc1cccnc1CN(C(=O)COc1cccc2c1OC(C)(C)C2)c1ccc(C2CC2)c(C)n1` [Compound 170, N-(5-Cyclopropyl-6-methylpyridin-2-yl)-2-((2,2-dimethyl-2,3-dihydrobenzofuran-7-yl)oxy)-N-((3-methylpyridin-2-yl)methyl)acetamide], for which the concentration giving a half-maximal response (EC50) in data set [4] turned out to be 1000 nM. In addition, the CC50 in “in vitro” was > 125000 nM.

Consider `CC1(C)Cc2cc(C(F)(F)F)cc(OCC(=O)Nc3nc4c(s3)CCCC4)c2O1` [Compound 173, 2-((2,2-Dimethyl-5-(trifluoromethyl)-2,3-dihydrobenzofuran-7-yl)oxy)-N-(4,5,6,7-tetrahydrobenzo[d]thiazol-2-yl)acetamide], for which the EC50 in data set [4] is 2500 nM. Moreover, the CC50 in “in vitro” was > 125000 nM.
